{
  "source": "patent US12146185B2",
  "about": "“Genetic markers for enhancing efficacy of antipsychotic treatment with iloperidone” (Vanda Pharmaceuticals Inc., priority 2018, dated 2024)",
  "system": "schizophrenia patients",
  "experiment": "Genome-wide association study of iloperidone efficacy (PANSS-T) in a randomized, double-blind, placebo- and ziprasidone-controlled 28-day study",
  "format": "in vivo, human",
  "conditions": "for Genotype associated with lower treatment effect: PANSS-T",
  "experimental": "A genome-wide association study (GWAS) is performed to improve understanding of the pharmacogenomic basis of response to iloperidone treatment of schizophrenia patients. In the GWAS, genotypes of 205 patients are utilized to evaluate treatment with iloperidone. Linear regression is used to directly test the association between single nucleotide polymorphisms (SNPs) and PANSS-T (day 28), correcting for essential covariates including principal components.\nPatients 18-65 years of age with diagnoses of schizophrenia according to the Diagnostic and Statistical Manual of Mental Disorders, 4th Edition are eligible to participate in a randomized, double-blind, placebo- and ziprasidione-controlled, 28-day study of the efficacy and safety of iloperidone. Patients are randomly assigned to iloperidone 12 mg bid, ziprasidone 80 mg bid (active control), or placebo. The primary efficacy variable is change from baseline to the last scheduled observation in PANSS-T using the data from the short-term, double-blind phase. A secondary objective is to identify genetic markers predictive of response to iloperidone. Blood samples are collected, and DNA is extracted from patients who consented to the optional GWAS.\nThree analyses of the PANSS-T are conducted: 1) A two-step approach where samples are randomly split into 2 groups of iloperidone-treated patients used to discover SNPs associated with change in PANSS-T (Discovery phase) and a second group to confirm the 100 most significant SNPs (Confirmatory phase). 2) A one-step approach using the Last Observation Carried Forward (LOCF) PANSS-T data of all iloperidone-treated patients. For each SNP, the most parsimonious genetic model (e.g., homozygous for one allele v. all other genotypes [i.e., AA v. AB and BB], heterozygous v. homozygous [i.e., AB v. AA and BB]) was established with respect to iloperidone efficacy using a one-way analysis of variance (ANOVA). 3) A Mixed-effects Model Repeated Measures (MMRM) analysis was subsequently conducted using the best genetic model of each SNP in the MMRM model. MMRM analyses were also conducted with the PANSS subscales PANSS-P, PANSS-N, and PANSS-GP.\nThe SNPs with a statistically significant association in all 3 analyses of PANSS-T, as well as the best of each analysis are considered significant findings and are listed below in Table 3.\nA logistic regression is conducted based on binary cutoffs at PANSS-T≥30 and on the top ends of the distribution logistic model, splitting the data set into two groups: robust responders (i.e., responders having PANSS_T change≥30) and weak responders (i.e., responders having PANSS-T change<20). A significant GRM8 signal is observed in allelic tests conducted, that is, linear association is observed with PANSS-T day 28, logistic model with tot change>=30 vs weak (<20) and logistic association with high and low PANSS-T.",
  "data": [
    {"compound": "COc1cc(C(C)=O)ccc1OCCCN1CCC(c2noc3cc(F)ccc23)CC1", "note": "[iloperidone, 1-[4-[3-[4-(6-fluoro-1,2-benzisoxazol-3-yl)-1-piperidinyl]propoxy]-3-methoxyphenyl]ethanone]", "values": [
      {"measurement": "Genotype associated with lower treatment effect", "setting": "GRIP1 rs11176436", "value": "nonTT"},
      {"measurement": "Genotype associated with lower treatment effect", "setting": "GRM8 rs2299503", "value": "nonAA"},
      {"measurement": "Genotype associated with lower treatment effect", "setting": "GRM8 rs11763603", "value": "nonCC"},
      {"measurement": "Genotype associated with lower treatment effect", "setting": "GRM8 rs13222700", "value": "nonTT"},
      {"measurement": "Genotype associated with lower treatment effect", "setting": "NRXN3 rs17109739", "value": "nonCC"},
      {"measurement": "Genotype associated with lower treatment effect", "setting": "NTRK2 rs7049108", "value": "nonGG"},
      {"measurement": "Genotype associated with lower treatment effect", "setting": "SHANK2 rs579298", "value": "nonTT"},
      {"measurement": "iloperidone treatment effect as measured by PANSS-T by rs13222700 genotype", "setting": "TT (homozygous minor allele) vs GT or GG, iloperidone 12 mg bid, PANSS-T day 28, FIG. 1", "value": "significantly higher treatment effect"},
      {"measurement": "iloperidone treatment effect as measured by PANSS-T change by rs13222700 genotype", "setting": "TT vs GT or GG, iloperidone 12 mg bid, FIG. 3", "value": "significantly larger change in PANSS-T score"},
      {"measurement": "P of association of GRM8 variant rs13222700 with iloperidone efficacy", "setting": "top locus of association analyses, chromosome 7", "value": "< 1×10^−5"}
    ]}
  ]
}
